Assays:
METTL3/METTL14 = METTL3/METTL14 (Homo sapiens, UniProt Q86U44); experiment: METTL3-14 standard enzyme assay (3H-SAM flashplate); conditions: Table 4; METTL3 biochemical assay
Procedure, shortened: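 METTL3/METTL14 (2.5 nM) preincubated 5 min, then reacted with 3′-biotinylated RNA UCUGGACUAAA (100 nM) and 3H-SAM (100 nM) for 30 min at ambient temperature in 20 mM HEPES pH 7.5, 50 mM KCl, 250 μM MgCl2, 1 mM DTT. Quenched with 15 μM cold SAM; product captured on streptavidin flashplates, scintillation counted.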

PRMT5-MEP50 = PRMT5-MEP50 (Homo sapiens, UniProt O14744); experiment: PRMT5 assay (3H-SAM flashplate); conditions: Table 4; PRMT5 biochemical assay
Procedure, shortened: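 PRMT5-MEP50 at 2.5 nM, preincubated 5 min with compound in 20 mM Tris-HCl pH 8.0, 1 mM DTT, 0.01% Tween at ambient temperature. Biotinylated acetylated histone H4 peptide (100 nM) and 3H-SAM (250 nM) react 60 min, quenched with 15 μM cold SAM; methylation captured on streptavidin flashplates and scintillation-counted.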

FLT3 = target: T1, FLT3 (Homo sapiens, UniProt P36888); experiment: FLT3 Caliper assay; assay type: biochemical; conditions: Table 4; read-out: FLT3 Calipher assay IC50
T1 sequence (P36888 27-993): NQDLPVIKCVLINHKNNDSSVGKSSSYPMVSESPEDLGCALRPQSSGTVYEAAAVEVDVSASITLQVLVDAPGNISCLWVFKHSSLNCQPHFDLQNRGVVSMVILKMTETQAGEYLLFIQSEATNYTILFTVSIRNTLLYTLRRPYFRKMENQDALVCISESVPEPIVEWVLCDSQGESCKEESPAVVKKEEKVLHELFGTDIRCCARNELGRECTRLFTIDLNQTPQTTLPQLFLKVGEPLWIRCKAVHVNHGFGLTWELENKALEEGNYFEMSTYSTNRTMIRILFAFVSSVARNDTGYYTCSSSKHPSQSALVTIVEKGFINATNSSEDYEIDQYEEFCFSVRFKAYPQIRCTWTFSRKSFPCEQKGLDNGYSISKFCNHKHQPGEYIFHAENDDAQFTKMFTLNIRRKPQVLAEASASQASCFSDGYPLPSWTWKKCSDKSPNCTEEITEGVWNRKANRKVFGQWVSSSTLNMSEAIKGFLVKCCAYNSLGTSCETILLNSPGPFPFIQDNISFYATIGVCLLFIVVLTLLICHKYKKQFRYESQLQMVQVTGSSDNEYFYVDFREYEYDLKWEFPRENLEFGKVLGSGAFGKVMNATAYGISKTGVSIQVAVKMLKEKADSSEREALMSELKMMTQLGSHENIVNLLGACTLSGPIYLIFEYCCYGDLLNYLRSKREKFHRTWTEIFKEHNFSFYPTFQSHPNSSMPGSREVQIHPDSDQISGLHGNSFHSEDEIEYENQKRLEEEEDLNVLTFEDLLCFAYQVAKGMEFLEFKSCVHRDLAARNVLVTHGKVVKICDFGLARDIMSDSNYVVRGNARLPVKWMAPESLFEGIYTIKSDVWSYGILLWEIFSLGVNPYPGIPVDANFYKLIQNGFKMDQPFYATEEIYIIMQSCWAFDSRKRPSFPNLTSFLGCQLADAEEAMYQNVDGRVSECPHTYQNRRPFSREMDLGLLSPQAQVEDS
Description: (§1) FLT3/FLT3-ITD Caliper Assays
(§2) Assays were performed in a 20 μl-volume in 384-well polypropylene microplates (Perkin Elmer Proxiplate, cat. No. 6059480) at ambient temperature. Optimized 1× assay buffer was 50 mM Hepes pH 7.5, 2 mM DTT, 0.01% Tween, 0.01% BSA, 10 mM MgCl2. For compound screening FLT3 (final concentration, f.c.=0.9 nM) or FLT3-ITD (f.c.=7 nM) was added using a Multidrop Combi (ThermoFisher Scientific, Waltham, MA) and preincubated for 10 min. Reactions were started by adding fluorescein-peptide (sequence 5-FAM-EAIYAAPFAKKK-CONH2) (f.c.=300 μM) and ATP (FLT3 f.c.=97 μM FLT3-ITD f.c.=146 μM) substrates. Reactions proceeded for 60 minutes. The reactions were stopped with LabChip ProfilerPro Separation Buffer containing EDTA (f.c.=20 mM). The plates were read on a Caliper microfluidics reader (PerkinElmer, Waltham, MA).

FLT3-ITD = target: T2, FLT3-ITD (Homo sapiens, UniProt P36888); experiment: FLT3-ITD Caliper assay; assay type: biochemical; conditions: Table 4; read-out: FLT3-ITD Calipher assay IC50
T2 sequence (P36888 1-993): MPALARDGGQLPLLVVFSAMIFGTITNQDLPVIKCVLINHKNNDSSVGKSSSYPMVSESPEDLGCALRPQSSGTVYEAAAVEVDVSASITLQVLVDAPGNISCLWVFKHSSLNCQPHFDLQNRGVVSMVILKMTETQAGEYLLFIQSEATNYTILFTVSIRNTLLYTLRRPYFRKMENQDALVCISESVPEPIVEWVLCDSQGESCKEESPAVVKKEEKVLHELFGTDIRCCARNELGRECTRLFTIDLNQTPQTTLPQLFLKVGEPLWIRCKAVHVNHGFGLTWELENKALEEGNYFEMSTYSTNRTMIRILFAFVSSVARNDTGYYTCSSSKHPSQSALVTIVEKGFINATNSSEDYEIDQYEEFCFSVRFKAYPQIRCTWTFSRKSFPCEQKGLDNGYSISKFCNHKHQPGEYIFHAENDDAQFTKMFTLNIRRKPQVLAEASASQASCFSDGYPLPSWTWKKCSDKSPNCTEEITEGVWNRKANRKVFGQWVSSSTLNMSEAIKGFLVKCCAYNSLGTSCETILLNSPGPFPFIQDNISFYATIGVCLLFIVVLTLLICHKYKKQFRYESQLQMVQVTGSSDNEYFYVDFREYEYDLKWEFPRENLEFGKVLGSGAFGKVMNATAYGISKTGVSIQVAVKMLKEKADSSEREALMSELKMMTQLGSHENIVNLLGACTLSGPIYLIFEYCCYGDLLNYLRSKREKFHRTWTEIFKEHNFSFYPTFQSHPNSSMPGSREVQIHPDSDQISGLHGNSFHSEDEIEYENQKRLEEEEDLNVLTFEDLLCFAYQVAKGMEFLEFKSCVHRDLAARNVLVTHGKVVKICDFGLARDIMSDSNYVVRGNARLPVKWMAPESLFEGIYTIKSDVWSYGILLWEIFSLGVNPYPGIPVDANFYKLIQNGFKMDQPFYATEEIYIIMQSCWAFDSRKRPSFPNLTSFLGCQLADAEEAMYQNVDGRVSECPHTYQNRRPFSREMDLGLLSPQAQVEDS
Description: as §1, §2

Sequence of PRMT5-MEP50 (O14744 whole entry): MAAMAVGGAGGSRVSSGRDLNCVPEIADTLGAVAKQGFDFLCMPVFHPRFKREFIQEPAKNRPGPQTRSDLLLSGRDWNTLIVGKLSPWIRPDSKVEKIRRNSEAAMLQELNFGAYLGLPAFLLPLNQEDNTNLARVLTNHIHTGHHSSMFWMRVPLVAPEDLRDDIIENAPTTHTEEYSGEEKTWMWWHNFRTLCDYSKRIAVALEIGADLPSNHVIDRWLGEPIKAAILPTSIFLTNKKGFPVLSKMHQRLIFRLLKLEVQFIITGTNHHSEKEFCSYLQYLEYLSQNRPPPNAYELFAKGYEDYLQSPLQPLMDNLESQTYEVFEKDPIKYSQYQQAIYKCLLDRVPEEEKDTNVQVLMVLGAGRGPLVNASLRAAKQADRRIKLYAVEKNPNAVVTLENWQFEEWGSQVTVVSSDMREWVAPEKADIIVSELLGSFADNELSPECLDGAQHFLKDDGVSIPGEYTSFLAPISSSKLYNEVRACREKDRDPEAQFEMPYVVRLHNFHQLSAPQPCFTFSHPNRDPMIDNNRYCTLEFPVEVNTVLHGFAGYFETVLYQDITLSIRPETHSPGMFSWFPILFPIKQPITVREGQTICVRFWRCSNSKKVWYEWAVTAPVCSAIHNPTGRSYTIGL
Sequence of PRMT5-MEP50 (Q9BQA1 whole entry partner): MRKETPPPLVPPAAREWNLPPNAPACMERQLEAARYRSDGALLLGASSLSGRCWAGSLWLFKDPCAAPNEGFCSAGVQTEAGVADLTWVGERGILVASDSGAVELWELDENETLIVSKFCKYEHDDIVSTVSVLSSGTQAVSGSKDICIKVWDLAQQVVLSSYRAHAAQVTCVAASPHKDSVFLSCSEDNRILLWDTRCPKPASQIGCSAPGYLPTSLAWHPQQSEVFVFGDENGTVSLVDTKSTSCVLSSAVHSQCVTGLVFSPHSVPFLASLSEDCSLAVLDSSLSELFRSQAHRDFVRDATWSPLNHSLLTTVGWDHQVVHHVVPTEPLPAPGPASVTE
Sequence of METTL3/METTL14 (Q86U44 whole entry, species assumed): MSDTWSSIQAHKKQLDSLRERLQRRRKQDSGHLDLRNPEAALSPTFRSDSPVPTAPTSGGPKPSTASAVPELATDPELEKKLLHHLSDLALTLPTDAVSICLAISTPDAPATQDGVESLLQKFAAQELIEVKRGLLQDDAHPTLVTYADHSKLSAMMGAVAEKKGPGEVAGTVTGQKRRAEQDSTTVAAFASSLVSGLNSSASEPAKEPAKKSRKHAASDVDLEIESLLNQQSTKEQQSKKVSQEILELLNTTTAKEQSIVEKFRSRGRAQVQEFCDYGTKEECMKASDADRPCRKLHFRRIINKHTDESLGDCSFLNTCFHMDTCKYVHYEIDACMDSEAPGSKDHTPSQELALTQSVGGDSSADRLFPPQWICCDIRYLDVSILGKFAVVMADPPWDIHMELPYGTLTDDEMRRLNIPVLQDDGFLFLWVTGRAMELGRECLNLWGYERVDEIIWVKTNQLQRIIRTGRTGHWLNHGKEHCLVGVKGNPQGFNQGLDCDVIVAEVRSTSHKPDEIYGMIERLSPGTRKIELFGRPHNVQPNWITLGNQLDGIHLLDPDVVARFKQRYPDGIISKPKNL
Sequence of METTL3/METTL14 (Q9HCE5 whole entry partner, species assumed): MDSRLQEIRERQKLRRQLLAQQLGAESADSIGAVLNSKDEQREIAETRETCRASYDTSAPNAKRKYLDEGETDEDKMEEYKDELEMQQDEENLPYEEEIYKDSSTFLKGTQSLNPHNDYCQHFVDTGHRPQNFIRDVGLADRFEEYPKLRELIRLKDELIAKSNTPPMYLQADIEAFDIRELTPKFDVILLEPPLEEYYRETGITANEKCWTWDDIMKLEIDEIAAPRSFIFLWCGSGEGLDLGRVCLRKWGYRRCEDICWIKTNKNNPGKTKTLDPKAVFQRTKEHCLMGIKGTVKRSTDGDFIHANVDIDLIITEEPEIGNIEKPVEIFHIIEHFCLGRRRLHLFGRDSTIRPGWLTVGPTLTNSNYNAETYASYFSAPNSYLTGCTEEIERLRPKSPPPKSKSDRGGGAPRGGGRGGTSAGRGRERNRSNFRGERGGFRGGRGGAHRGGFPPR

IC50 (METTL3/METTL14) [nM] | IC50 (PRMT5-MEP50) [nM] | IC50 (FLT3) [nM] | IC50 (FLT3-ITD) [nM] | Structure (SMILES)
< 10 | < 10 | ≥ 1000 | ≥ 1000 | CNc1nc2ccc(NC(=O)[C@H]3O[C@@H](n4cc(-c5ccn(C)n5)c5c(N)ncnc54)[C@H](O)[C@@H]3O)cc2[nH]1 [Compound I-142]
100 to 1000 | 10 to 100 | ≥ 1000 | ≥ 1000 | Cn1ccc(-c2cn([C@@H]3O[C@H](C(=O)Nc4cc(N5CCC5)ccn4)[C@@H](O)[C@H]3O)c3ncnc(N)c23)n1 [Compound I-168]
≥ 1000 | 100 to 1000 | ≥ 1000 | ≥ 1000 | Cn1ccc(-c2cn([C@@H]3O[C@H](C(=O)NC4CCOCC4)[C@@H](O)[C@H]3O)c3ncnc(N)c23)n1 [Compound I-182]
100 to 1000 | 100 to 1000 | ≥ 1000 | ≥ 1000 | Cn1ccc(-c2cn([C@@H]3O[C@H](C(=O)Nc4cc(NCC(F)F)ccn4)[C@@H](O)[C@H]3O)c3ncnc(N)c23)n1 [Compound I-169]
≥ 1000 | ≥ 1000 | ≥ 1000 | ≥ 1000 | Cc1ccnc(NC(=O)[C@H]2O[C@@H](n3cc(-c4ccn(C)n4)c4c(N)ncnc43)[C@H](O)[C@@H]2O)c1 [Compound I-172]
100 to 1000 | 10 to 100 | ≥ 1000 | ≥ 1000 | CN(C)c1ccnc(NC(=O)[C@H]2O[C@@H](n3cc(-c4ccn(C)n4)c4c(N)ncnc43)[C@H](O)[C@@H]2O)c1 [Compound I-166]
100 to 1000 | 10 to 100 | ≥ 1000 | ≥ 1000 | Cn1ccc(-c2cn([C@@H]3O[C@H](C(=O)Nc4cc(NCC5CC5)ccn4)[C@@H](O)[C@H]3O)c3ncnc(N)c23)n1 [Compound I-163]
≥ 1000 | ≥ 1000 | ≥ 1000 | ≥ 1000 | Cn1ccc(-c2cn([C@@H]3O[C@H](C(=O)NCC#N)[C@@H](O)[C@H]3O)c3ncnc(N)c23)n1 [Compound I-229]
100 to 1000 | ≥ 1000 | ≥ 1000 | ≥ 1000 | CNc1cccc(CCNC(=O)[C@H]2O[C@@H](n3cc(-c4ccn(C)n4)c4c(N)ncnc43)[C@H](O)[C@@H]2O)n1 [Compound I-193]
100 to 1000 | 100 to 1000 | ≥ 1000 | ≥ 1000 | Cn1ccc(-c2cn([C@@H]3O[C@H](C(=O)Nc4ccnc(NC5CCC5)c4)[C@@H](O)[C@H]3O)c3ncnc(N)c23)n1 [Compound I-167]
≥ 1000 | 10 to 100 | ≥ 1000 | ≥ 1000 | CN(C)CCCNC(=O)[C@H]1O[C@@H](n2cc(-c3ccn(C)n3)c3c(N)ncnc32)[C@H](O)[C@@H]1O [Compound I-183]

The next lines start with the molecule.

Structure (SMILES) | IC50 (METTL3/METTL14) [nM] | IC50 (PRMT5-MEP50) [nM] | IC50 (FLT3) [nM] | IC50 (FLT3-ITD) [nM]
Cn1ccc(-c2cn([C@@H]3O[C@H](C(=O)N[C@@H]4CCC(=O)NC4)[C@@H](O)[C@H]3O)c3ncnc(N)c23)n1 [Compound I-180] | ≥ 1000 | ≥ 1000 | ≥ 1000 | ≥ 1000
Cn1ccc(-c2cn([C@@H]3O[C@H](C(=O)N4CCNC(=O)C4)[C@@H](O)[C@H]3O)c3ncnc(N)c23)n1 [Compound I-204] | ≥ 1000 | ≥ 1000 | ≥ 1000 | ≥ 1000
CCNc1cc(CNC(=O)[C@H]2O[C@@H](n3cc(-c4ccn(C)n4)c4c(N)ncnc43)[C@H](O)[C@@H]2O)ccn1 [Compound I-226] | 100 to 1000 | 100 to 1000 | ≥ 1000 | ≥ 1000
Cn1ccc(-c2cn([C@@H]3O[C@H](C(=O)NN4CCCCC4)[C@@H](O)[C@H]3O)c3ncnc(N)c23)n1 [Compound I-199] | ≥ 1000 | 100 to 1000 | ≥ 1000 | ≥ 1000
Cn1ccc(-c2cn([C@@H]3O[C@H](C(=O)NCCc4c[nH]cn4)[C@@H](O)[C@H]3O)c3ncnc(N)c23)n1 [Compound I-228] | 100 to 1000 | 100 to 1000 | ≥ 1000 | ≥ 1000
Cn1ccc(-c2cn([C@@H]3O[C@H](C(=O)Nc4ccc5ccc(N6CCC6)nc5c4)[C@@H](O)[C@@H]3F)c3ncnc(N)c23)n1 [Compound I-33, (2S,3R,4S,5R)-5-[4-amino-5-(1-methyl-1H-pyrazol-3-yl)-7H-pyrrolo[2,3-d]pyrimidin-7-yl]-N-[2-(azetidin-1-yl)quinolin-7-yl]-4-fluoro-3-hydroxyoxolane-2-carboxamide] | < 10 | ≥ 1000 | ≥ 1000 | ≥ 1000
C[C@@H](NC(=O)[C@H]1O[C@@H](n2cc(-c3ccn(C)n3)c3c(N)ncnc32)[C@H](O)[C@@H]1O)C1CCNCC1 [Compound I-196] | ≥ 1000 | 100 to 1000 | ≥ 1000 | ≥ 1000
CCN(CC)C(=O)[C@H]1O[C@@H](n2cc(-c3ccn(C)n3)c3c(N)ncnc32)[C@H](O)[C@@H]1O [Compound I-150] | ≥ 1000 | 100 to 1000 | ≥ 1000 | ≥ 1000
Cn1ccc(-c2cn([C@@H]3O[C@H](C(=O)Nc4cc[nH]n4)[C@@H](O)[C@H]3O)c3ncnc(N)c23)n1 [Compound I-170] | ≥ 1000 | ≥ 1000 | 100 to 1000 | 100 to 1000
Cn1ccc(-c2cn([C@@H]3O[C@H](C(=O)NC4CCNC(=O)C4)[C@@H](O)[C@H]3O)c3ncnc(N)c23)n1 (stereo partly shown) [Compound I-175] | ≥ 1000 | ≥ 1000 | ≥ 1000 | ≥ 1000
Cn1ccc(-c2cn([C@@H]3O[C@H](C(=O)Nc4cc(NC5CCC5)ccn4)[C@@H](O)[C@H]3O)c3ncnc(N)c23)n1 [Compound I-162] | 100 to 1000 | 10 to 100 | ≥ 1000 | ≥ 1000
